Blank lines part the entries; values can stand above or below the compound they belong to.
Key:
[1] = in vivo; cited from earlier work
[2] = test system: New Zealand White rabbits; experiment: Post-mortem T1-weighted MRI after intravitreal injection of Gd-DOTA in thermoresponsive hydrogel; assay type: in vivo, rabbit; settings: 24 h after intravitreal injection
Protocol: Scans were performed within one hour of sacrifice. Soluble Gd-DOTA without MP encapsulation was largely cleared from the injection site at 24 h, with only 56% and 59% signal intensity (relative to nearby muscle tissue) in the vitreous and anterior chamber, respectively. […] The spatiotemporal distribution of Gd-DOTA into the rest of the eye will also provide valuable data for future controlled release formulations of other ocular therapeutics, such as those targeting the posterior segment of the eye.

[3] = Loading and release of other drugs from microparticles embedded within the gel; assay type: physicochemical
Text: The loading and release of other drugs (moxiflxacin and vancomycin) with the microparticles embedded within the gel has also been confirmed.

Compound: O=C([O-])CN(CCN(CC(=O)[O-])CC(=O)O)CCN(CC(=O)[O-])CC(=O)O.[Gd+3] [Gd-DTPA]
- ocular half-life [1]: 28.08 min

Compound: Brimonidine tartrate [BT]
- ocular half-life [1]: 28.2 min

- signal intensity relative to nearby muscle tissue, anterior chamber [2]: 59%
- signal intensity relative to nearby muscle tissue, vitreous [2]: 56%
Compound: O=C([O-])CN1CCN(CC(=O)[O-])CCN(CC(=O)O)CCN(CC(=O)[O-])CC1.[Gd+3] [Soluble Gd-DOTA, gadolinium-tetraazocyclododecanetetraacetic acid]

Compound: CN[C@H](CC(C)C)C(=O)N[C@H]1C(=O)N[C@@H](CC(N)=O)C(=O)N[C@H]2C(=O)N[C@H]3C(=O)N[C@H](C(=O)N[C@H](C(=O)O)c4cc(O)cc(O)c4-c4cc3ccc4O)[C@H](O)c3ccc(c(Cl)c3)Oc3cc2cc(c3O[C@@H]2O[C@H](CO)[C@@H](O)[C@H](O)[C@H]2O[C@H]2C[C@](C)(N)[C@H](O)[C@H](C)O2)Oc2ccc(cc2Cl)[C@H]1O [vancomycin]
- loading and release with microparticles embedded within the gel [3]: confirmed
